Patent US6355799B1, “Substituted benzene compounds, process for their preparation, and herbicidal and defoliant compositions containing them” (ISK Americas Incorporated, priority 1997, dated 2002)

Legend:
Type in all cases: in vivo
[1] = tested on: upland rice (Oryza sp., var. Tebonnet, RICE); experiment: Post-emerge test, crop safety; settings: phytotoxicity rating 0-100 (0 no damage, 100 complete death), 14 days after application
Method in brief: (§1)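 Plants grown in 10 cm pots of sandy loam mix received acetone-dissolved compounds through a moving flat-fan nozzle. Doses ranged from 15 to 1000 g ai/ha. Pre-emerge pots were seeded one day earlier, post-emerge pots 8–21 days earlier. Fourteen days on, each pot was graded 0–100 for damage.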

[2] = tested on: field corn (Zea mays L., var. Dekalb 535, CORN); experiment: Post-emerge test, crop safety; settings: phytotoxicity rating 0-100 (0 no damage, 100 complete death), 14 days after application
Method in brief: as §1

[3] = tested on: sicklepod (Cassia obtusifolia, CASOB); experiment: Pre-emerge test, greenhouse herbicide activity screening; settings: pre-emerge, rated 14 days after application, 0 = no damage, 100 = complete death
Method in brief: (§2)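 Rating: 0–100 visual injury, 14 DAA. Application: acetone, 187 l/ha, 15–1000 g ai/ha, flat-fan track sprayer with nozzle 40–45 cm above soil or canopy. Post-emerge runs used 0.25% v/v surfactant on 2–3 leaf plants.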

[4] = tested on: velvetleaf (Abutilon theophrasti, ABUTH); experiment: as above; settings: pre-emerge, rated 14 days after application, 0 = no damage, 100 = complete death
Method in brief: as §2

[5] = tested on: green foxtail (Setaria viridis, SETVI); experiment: as above; settings: pre-emerge, rated 14 days after application, 0 = no damage, 100 = complete death
Method in brief: as §2

[6] = tested on: johnsongrass (Sorghum halepense, SORHA); experiment: as above; settings: pre-emerge, rated 14 days after application, 0 = no damage, 100 = complete death
Method in brief: as §2

[7] = tested on: lambsquarters (Chenopodium album, CHEAL); experiment: as above; settings: pre-emerge, rated 14 days after application, 0 = no damage, 100 = complete death
Method in brief: as §2

[8] = tested on: ivyleaf morningglory (Ipomoea hederacea, IPOHE); experiment: as above; settings: pre-emerge, rated 14 days after application, 0 = no damage, 100 = complete death
Method in brief: as §2

[9] = tested on: barnyardgrass (Echinochloa crus-galli, ECHCG); experiment: as above; settings: pre-emerge, rated 14 days after application, 0 = no damage, 100 = complete death
Method in brief: as §2

[10] = tested on: large crabgrass (Digitaria sanguinalis, DIGSA); experiment: as above; settings: pre-emerge, rated 14 days after application, 0 = no damage, 100 = complete death
Method in brief: as §2

[11] = tested on: redroot pigweed (Amaranthus retroflexus, AMARE); experiment: as above; settings: pre-emerge, rated 14 days after application, 0 = no damage, 100 = complete death
Method in brief: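 Sandy loam pots; pre-emerge: sown 1 d pre-spray, surface-watered after, then bottom-watered. Post-emerge: sown 8–21 d before, 2–3 leaf stage, + 0.25% v/v NIS, bottom-watered. Acetone, 187 l/ha track spray, 15–1000 g ai/ha. 0–100 injury score, day 14.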

[12] = tested on: upland rice (Oryza sp., var. Tebonnet, RICE); experiment: Pre-emerge test, crop safety; settings: pre-emerge, rated 14 days after application, 0 = no damage, 100 = complete death
Method in brief: (§3)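 Visual ratings on a 0-100 scale (0 no damage, 100 all plants dead) were taken at 14 days after treatment. Rates of 15-1000 g ai/ha in acetone, 187 l/ha, were sprayed onto soil one day after planting (pre-emerge) or onto 2-3 leaf plants with 0.25% v/v surfactant (post-emerge).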

[13] = tested on: field corn (Zea mays L., var. Dekalb 535, CORN); experiment: Pre-emerge test, crop safety; settings: pre-emerge, rated 14 days after application, 0 = no damage, 100 = complete death
Method in brief: as §3

[14] = tested on: sicklepod (Cassia obtusifolia, CASOB); experiment: Post-emerge test, greenhouse herbicide activity screening; settings: phytotoxicity rating 0-100 (0 no damage, 100 complete death), 14 days after application
Method in brief: (§4)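 Compounds in acetone were track-sprayed at 15–1000 g ai/ha: pre-emergence onto soil sown the previous day, then top-watered to incorporate and later bottom-watered; post-emergence onto 2–3 leaf plants with 0.25% v/v surfactant, bottom-watered only. Ratings on a 0–100 phytotoxicity scale were taken at day 14.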

[15] = tested on: velvetleaf (Abutilon theophrasti, ABUTH); experiment: as above; settings: phytotoxicity rating 0-100 (0 no damage, 100 complete death), 14 days after application
Method in brief: as §4

[16] = tested on: green foxtail (Setaria viridis, SETVI); experiment: as above; settings: phytotoxicity rating 0-100 (0 no damage, 100 complete death), 14 days after application
Method in brief: as §4

[17] = tested on: johnsongrass (Sorghum halepense, SORHA); experiment: as above; settings: phytotoxicity rating 0-100 (0 no damage, 100 complete death), 14 days after application
Method in brief: as §4

[18] = tested on: lambsquarters (Chenopodium album, CHEAL); experiment: as above; settings: phytotoxicity rating 0-100 (0 no damage, 100 complete death), 14 days after application
Method in brief: as §4

[19] = tested on: ivyleaf morningglory (Ipomoea hederacea, IPOHE); experiment: as above; settings: phytotoxicity rating 0-100 (0 no damage, 100 complete death), 14 days after application
Method in brief: as §4

[20] = tested on: barnyardgrass (Echinochloa crus-galli, ECHCG); experiment: as above; settings: phytotoxicity rating 0-100 (0 no damage, 100 complete death), 14 days after application
Method in brief: as §4

[21] = tested on: large crabgrass (Digitaria sanguinalis, DIGSA); experiment: as above; settings: phytotoxicity rating 0-100 (0 no damage, 100 complete death), 14 days after application
Method in brief: as §4

[22] = tested on: redroot pigweed (Amaranthus retroflexus, AMARE); experiment: as above; settings: phytotoxicity rating 0-100 (0 no damage, 100 complete death), 14 days after application
Method in brief: as §4

C=CC(=O)N(C(=O)C=C)c1c(OC)c(Cl)cc(F)c1-n1c(=O)cc(C(F)(F)F)n(C)c1=O [2-4]
Post-emerge Herbicidal Activity RICE (crop damage) ([1]; 63 g ai/ha): 0
Post-emerge Herbicidal Activity RICE (crop damage) ([1]; 250 g ai/ha): 0
Post-emerge Herbicidal Activity CORN (crop damage) ([2]; 63 g ai/ha): 0
Post-emerge Herbicidal Activity CORN (crop damage) ([2]; 250 g ai/ha): 0
Pre-emerge Herbicidal Activity CASOB (phytotoxicity rating, scale 0-100) ([3]; 63 g ai/ha): 0
Pre-emerge Herbicidal Activity CASOB (phytotoxicity rating, scale 0-100) ([3]; 250 g ai/ha): 0
Pre-emerge Herbicidal Activity ABUTH (phytotoxicity rating, scale 0-100) ([4]; 63 g ai/ha): 30
Pre-emerge Herbicidal Activity ABUTH (phytotoxicity rating, scale 0-100) ([4]; 250 g ai/ha): 100
Pre-emerge Herbicidal Activity SETVI (phytotoxicity rating, scale 0-100) ([5]; 63 g ai/ha): 0
Pre-emerge Herbicidal Activity SETVI (phytotoxicity rating, scale 0-100) ([5]; 250 g ai/ha): 80
Pre-emerge Herbicidal Activity SORHA (phytotoxicity rating, scale 0-100) ([6]; 63 g ai/ha): 0
Pre-emerge Herbicidal Activity SORHA (phytotoxicity rating, scale 0-100) ([6]; 250 g ai/ha): 0
Pre-emerge Herbicidal Activity CHEAL (phytotoxicity rating, scale 0-100) ([7]; 63 g ai/ha): 50
Pre-emerge Herbicidal Activity CHEAL (phytotoxicity rating, scale 0-100) ([7]; 250 g ai/ha): 100
Pre-emerge Herbicidal Activity IPOHE (phytotoxicity rating, scale 0-100) ([8]; 63 g ai/ha): 20
Pre-emerge Herbicidal Activity IPOHE (phytotoxicity rating, scale 0-100) ([8]; 250 g ai/ha): 70
Pre-emerge Herbicidal Activity ECHCG (phytotoxicity rating, scale 0-100) ([9]; 63 g ai/ha): 0
Pre-emerge Herbicidal Activity ECHCG (phytotoxicity rating, scale 0-100) ([9]; 250 g ai/ha): 0
Pre-emerge Herbicidal Activity DIGSA (phytotoxicity rating, scale 0-100) ([10]; 63 g ai/ha): 0
Pre-emerge Herbicidal Activity DIGSA (phytotoxicity rating, scale 0-100) ([10]; 250 g ai/ha): 50
Pre-emerge Herbicidal Activity AMARE (phytotoxicity rating, scale 0-100) ([11]; 63 g ai/ha): 80
Pre-emerge Herbicidal Activity AMARE (phytotoxicity rating, scale 0-100) ([11]; 250 g ai/ha): 95
Pre-emerge crop damage RICE (phytotoxicity rating, scale 0-100) ([12]; 63 g ai/ha): 0
Pre-emerge crop damage RICE (phytotoxicity rating, scale 0-100) ([12]; 250 g ai/ha): 10
Pre-emerge crop damage CORN (phytotoxicity rating, scale 0-100) ([13]; 63 g ai/ha): 0
Pre-emerge crop damage CORN (phytotoxicity rating, scale 0-100) ([13]; 250 g ai/ha): 20
Post-emerge Herbicidal Activity CASOB ([14]; 63 g ai/ha): 0
Post-emerge Herbicidal Activity CASOB ([14]; 250 g ai/ha): 0
Post-emerge Herbicidal Activity ABUTH ([15]; 63 g ai/ha): 0
Post-emerge Herbicidal Activity ABUTH ([15]; 250 g ai/ha): 50
Post-emerge Herbicidal Activity SETVI ([16]; 63 g ai/ha): 0
Post-emerge Herbicidal Activity SETVI ([16]; 250 g ai/ha): 0
Post-emerge Herbicidal Activity SORHA ([17]; 63 g ai/ha): 10
Post-emerge Herbicidal Activity SORHA ([17]; 250 g ai/ha): 10
Post-emerge Herbicidal Activity CHEAL ([18]; 63 g ai/ha): 50
Post-emerge Herbicidal Activity CHEAL ([18]; 250 g ai/ha): 50
Post-emerge Herbicidal Activity IPOHE ([19]; 63 g ai/ha): 0
Post-emerge Herbicidal Activity IPOHE ([19]; 250 g ai/ha): 20
Post-emerge Herbicidal Activity ECHCG ([20]; 63 g ai/ha): 0
Post-emerge Herbicidal Activity ECHCG ([20]; 250 g ai/ha): 0
Post-emerge Herbicidal Activity DIGSA ([21]; 63 g ai/ha): 0
Post-emerge Herbicidal Activity DIGSA ([21]; 250 g ai/ha): 0
Post-emerge Herbicidal Activity AMARE ([22]; 63 g ai/ha): 0
Post-emerge Herbicidal Activity AMARE ([22]; 250 g ai/ha): 70
